# According to paper PMC6667231 (International journal of nutrition, 2019):
# Target: T1, CDK4/Cyclin D1 (Homo sapiens, UniProt P11802)
# Experiment: cell-free […]-ATP kinase assay, P81 phosphocellulose plate
# Assay type: biochemical
# Settings: not given
# T1 sequence (P11802 2-303): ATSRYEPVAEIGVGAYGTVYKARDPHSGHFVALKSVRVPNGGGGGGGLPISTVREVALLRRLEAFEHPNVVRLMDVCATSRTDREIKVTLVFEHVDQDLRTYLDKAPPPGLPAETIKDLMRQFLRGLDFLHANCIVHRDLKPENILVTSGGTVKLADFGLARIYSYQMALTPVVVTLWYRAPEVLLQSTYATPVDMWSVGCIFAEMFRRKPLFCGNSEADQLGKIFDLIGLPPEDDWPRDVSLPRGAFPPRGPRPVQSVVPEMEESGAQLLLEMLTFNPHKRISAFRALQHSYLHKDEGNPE
# T1 sequence (P24385 whole entry partner): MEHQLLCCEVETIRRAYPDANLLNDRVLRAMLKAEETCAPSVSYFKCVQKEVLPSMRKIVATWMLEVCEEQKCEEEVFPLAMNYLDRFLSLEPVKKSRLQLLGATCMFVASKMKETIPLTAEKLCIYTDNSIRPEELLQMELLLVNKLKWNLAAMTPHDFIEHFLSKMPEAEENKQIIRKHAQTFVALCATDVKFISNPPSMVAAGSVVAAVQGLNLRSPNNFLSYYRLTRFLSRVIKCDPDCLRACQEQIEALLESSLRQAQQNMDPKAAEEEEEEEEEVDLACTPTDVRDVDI
row,Structure (SMILES),IC50 [µM]
1,COc1c(O)cc2oc3cc(O)c(CC=C(C)C)c(O)c3c(=O)c2c1CCC(C)(C)O [garcinone D],12.8
2,CC(C)=CCc1c(O)cc2oc3cc(O)c(O)c(CC=C(C)C)c3c(=O)c2c1O [γ-mangostin],6.2

# Other lines, results leading:
row,IC50 [µM],Structure (SMILES)
1,15.6,COc1c(O)cc2oc3cc4c(c(O)c3c(=O)c2c1CC=C(C)C)CCC(C)(C)O4 [3-isomangostin]
2,8.5,COc1c(O)cc2oc3cc(O)c(CC=C(C)C)c(O)c3c(=O)c2c1CC=C(C)C [α-mangostin]

# Target: T1, CDK4/Cyclin D1
# Experiment: as above
# Assay type: biochemical
# Settings: read-out: 40 μM
row,activity at 40 µM [%],Structure (SMILES)
1,81.4 ± 6.38,CC(C)=CCc1c(O)c(CC=C(C)C)c2oc3c(O)cccc3c(=O)c2c1O [8-desoxygartanin]
2,65.7 ± 7.94,CC(C)=CCc1c(O)cc2oc3cc(O)c(O)c(CCC(C)(C)O)c3c(=O)c2c1O [garcinone C]
3,80.2 ± 10.2,CC(C)=CCc1c(O)c(CC=C(C)C)c2oc3c(O)ccc(O)c3c(=O)c2c1O [gartanin]
4,55 ± 2.88,COc1cc2oc3cc(O)c(OC)c(CC=C(C)C)c3c(=O)c2c(O)c1CC=C(C)C [β-mangostin]
